In patent US8883745B2, “C—glycolipids with enhanced Th-1 profile” (New York University, priority 2006, dated 2014):

Assays:
Type in all cases: in vivo
[1] = tested on: IL-12; assay: IL-12 levels in sera upon i.v. glycolipid administration to BALB/c mice (ELISA); design: IL-12 levels, test 1 / IL-12 levels, test 2 / IL-12 levels, average / IL-12 levels, Total: unit not given here
Description: (§1) Five- to six-week-old female C57BL/6 mice and BALB/c mice were purchased from Taconic. Each glycolipid was stored at 1 mg/ml in 100% DMSO. Mice were injected intravenously with 1 μg of each glyocolipid diluted in 200 μL sterile phosphate buffered saline (PBS). At indicated time points, sera were collected from each animal, and concentrations of IFN-γ, IL-4, and IL-12 in the sera were evaluated by enzyme-linked immunosorbent assay (ELISA). Serum concentrations of IFN-γ, IL-4, and IL-12 were evaluated using an ELISA kit (eBioscience, San Diego, Calif.). Briefly, 96 well flat-bottom ELISA plates (NUNC) were coated with capture antibody according to the manufacture's recommendation and incubated overnight at 4° C. The plates were washed with PBS+0.05% Tween 20 (PBS-T), then incubated with manufacturer provided blocking solution for 1 hr at room temperature to block non-specific binding sites. After washing with PBS-T, sera diluted 1:10 was added to the wells and incubated for 2 hrs at room temperature. Plates were then incubated at room temperature for 1 hr with biotintylated detection antibody, washed, incubated with avidin conjugated to horse radish peroxidase (HRP) for 30 min at room temperature, washed, and finally incubated with tetramethylbenzidine substrate solution in the dark for 10 minutes at room temperature. The antibodies, avidin-HRP, and substrate solution were all diluted according to the manufacture's recommendation. Reactions were stopped with 2.0N sulfuric acid and the cytokine concentration in each well was determined by comparing the absorbance at 450 nm in each well to known standards. The levels of Th1- and Th2-type cytokines were determined in two different genetic backgrounds, i.e., in C57BL/6 mice and BALB/c mice. The following compounds were administered: A=compound (A-1 trans-conformer), B=compound (A-2), C=compound (A-3), D=compound (A-4), E=compound (A-5), Z=control (PBS alone), CRONY=α-C-GalCer, KRN=α-GalCer, GCK109 (A-1 trans-conformer), GCK151 (A-1 cis-conformer), GCK152 (A-7). The levels of cytokines were measured at 0, 2, 6, 12, 24, 48, and 72 hours after the compound administration. The levels of Th1-type cytokines IFN-γ and IL-12 are summarized in FIGS. 2A-C and 3A-C, respectively. Table 7 provides IFN-γ/IL-4 and IL-12/IL-4 ratios for various compounds, which can be used as indicators of their ability to selectively stimulate Th1-type immune responses.

[2] = tested on: IL-12; assay: IL-12 levels in sera upon i.v. glycolipid administration to C57BL/6 mice (ELISA); design: IL-12 levels, test 1 / IL-12 levels, test 2 / IL-12 levels, average / IL-12 levels, Total: unit not given here
Description: as §1

[3] = tested on: IFN-γ; assay: IFN-γ levels in sera upon i.v. glycolipid administration to C57BL/6 mice (ELISA); design: IFN-γ levels, test 1 / IFN-γ levels, test 2 / IFN-γ levels, average / IFN-γ levels, Total / IFN-γ (B6): unit not given here
Description: as §1

[4] = tested on: IFN-γ; assay: IFN-γ levels in sera upon i.v. glycolipid administration to BALB/c mice (ELISA); design: IFN-γ levels, test 1 / IFN-γ levels, test 2 / IFN-γ levels, average / IFN-γ levels, Total: unit not given here
Description: as §1

[5] = C57BL/6, ratio calculated from Tables 1-6
[6] = C57BL/6, serum, total over hours 0-72

With `CCCCCCCCCCCCCCCCCC/C=C/CCCCCCCCC(=O)N[C@@H](/C=C/[C@H]1O[C@H](CO)[C@H](O)[C@H](O)[C@H]1O)[C@H](O)[C@H](O)CCCCCCCCCCCCCC` [A-1] the “IL-12/IL-4 (BALB/c)” value ([1]; ratio calculated from Tables 1-6) was 21, the “IL-12 levels, average” value ([1]; serum, hour 0) was 5 and the “IL-12 levels, test 1” value ([1]; serum, hour 0) was 5. The “IL-12 levels, test 2” value ([1]; serum, hour 0) was 5, the “IL-12 levels, average” value ([1]; serum, hour 2) was 119.5 and the “IL-12 levels, test 1” value ([1]; serum, hour 2) was 0. For the same compound, the “IL-12 levels, test 2” value ([1]; serum, hour 2) was 239, the “IL-12 levels, average” value ([1]; serum, hour 6) was 6981 and the “IL-12 levels, test 1” value ([1]; serum, hour 6) was 7064. The “IL-12 levels, test 2” value ([1]; serum, hour 6) was 6898, the “IL-12 levels, average” value ([1]; serum, hour 12) was 7001 and the “IL-12 levels, test 1” value ([1]; serum, hour 12) was 7513. For the same compound, the “IL-12 levels, test 2” value ([1]; serum, hour 12) was 6489, the “IL-12 levels, average” value ([1]; serum, hour 24) was 306 and the “IL-12 levels, test 1” value ([1]; serum, hour 24) was 299. The “IL-12 levels, test 2” value ([1]; serum, hour 24) was 313, the “IL-12 levels, average” value ([1]; serum, hour 48) was 0 and the “IL-12 levels, test 1” value ([1]; serum, hour 48) was 0. For the same compound, the “IL-12 levels, test 2” value ([1]; serum, hour 48) was 0, the “IL-12 levels, average” value ([1]; serum, hour 72) was 48.5 and the “IL-12 levels, test 1” value ([1]; serum, hour 72) was 0. For the same compound, the “IL-12 levels, test 2” value ([1]; serum, hour 72) was 97, the “IL-12 levels, Total” value ([1]; serum, total over hours 0-72) was 14462 and the “IL-12/IL-4 (B6)” value [2, 5] was 2.9. For the same compound, the “IL-12 levels, average” value ([2]; C57BL/6, serum, hour 0) was 5, the “IL-12 levels, test 1” value ([2]; C57BL/6, serum, hour 0) was 5 and the “IL-12 levels, test 2” value ([2]; C57BL/6, serum, hour 0) was 5. The “IL-12 levels, average” value ([2]; C57BL/6, serum, hour 2) was 20, the “IL-12 levels, test 1” value ([2]; C57BL/6, serum, hour 2) was 40 and the “IL-12 levels, test 2” value ([2]; C57BL/6, serum, hour 2) was 0. The “IL-12 levels, average” value ([2]; C57BL/6, serum, hour 6) was 2181.5, the “IL-12 levels, test 1” value ([2]; C57BL/6, serum, hour 6) was 1993 and the “IL-12 levels, test 2” value ([2]; C57BL/6, serum, hour 6) was 2370. The “IL-12 levels, average” value ([2]; C57BL/6, serum, hour 12) was 2071, the “IL-12 levels, test 1” value ([2]; C57BL/6, serum, hour 12) was 1790 and the “IL-12 levels, test 2” value ([2]; C57BL/6, serum, hour 12) was 2352. For the same compound, the “IL-12 levels, average” value ([2]; C57BL/6, serum, hour 24) was 54, the “IL-12 levels, test 1” value ([2]; C57BL/6, serum, hour 24) was 30 and the “IL-12 levels, test 2” value ([2]; C57BL/6, serum, hour 24) was 78. For the same compound, the “IL-12 levels, average” value ([2]; C57BL/6, serum, hour 48) was 0, the “IL-12 levels, test 1” value ([2]; C57BL/6, serum, hour 48) was 0 and the “IL-12 levels, test 2” value ([2]; C57BL/6, serum, hour 48) was 0. The “IL-12 levels, average” value ([2]; C57BL/6, serum, hour 72) was 0, the “IL-12 levels, test 1” value ([2]; C57BL/6, serum, hour 72) was 0 and the “IL-12 levels, test 2” value ([2]; C57BL/6, serum, hour 72) was 0. The “IL-12 levels, Total” value [2, 6] was 4332, the “IFN-γ/IL-4 (B6)” value [3, 5] was 12 and the “IFN-γ levels, average” value ([3]; C57BL/6, serum, hour 0) was 31. For the same compound, the “IFN-γ levels, test 1” value ([3]; C57BL/6, serum, hour 0) was 31, the “IFN-γ levels, test 2” value ([3]; C57BL/6, serum, hour 0) was 31 and the “IFN-γ levels, average” value ([3]; C57BL/6, serum, hour 2) was 281. For the same compound, the “IFN-γ levels, test 1” value ([3]; C57BL/6, serum, hour 2) was 226, the “IFN-γ levels, test 2” value ([3]; C57BL/6, serum, hour 2) was 336 and the “IFN-γ levels, average” value ([3]; C57BL/6, serum, hour 6) was 1147.5. The “IFN-γ levels, test 1” value ([3]; C57BL/6, serum, hour 6) was 1172, the “IFN-γ levels, test 2” value ([3]; C57BL/6, serum, hour 6) was 1123 and the “IFN-γ levels, average” value ([3]; C57BL/6, serum, hour 12) was 4323. For the same compound, the “IFN-γ levels, test 1” value ([3]; C57BL/6, serum, hour 12) was 4093, the “IFN-γ levels, test 2” value ([3]; C57BL/6, serum, hour 12) was 4553 and the “IFN-γ levels, average” value ([3]; C57BL/6, serum, hour 24) was 11150. The “IFN-γ levels, test 1” value ([3]; C57BL/6, serum, hour 24) was 10000, the “IFN-γ levels, test 2” value ([3]; C57BL/6, serum, hour 24) was 12300 and the “IFN-γ levels, average” value ([3]; C57BL/6, serum, hour 48) was 400.5. The “IFN-γ levels, test 1” value ([3]; C57BL/6, serum, hour 48) was 366, the “IFN-γ levels, test 2” value ([3]; C57BL/6, serum, hour 48) was 435 and the “IFN-γ levels, average” value ([3]; C57BL/6, serum, hour 72) was 151. The “IFN-γ levels, test 1” value ([3]; C57BL/6, serum, hour 72) was 124, the “IFN-γ levels, test 2” value ([3]; C57BL/6, serum, hour 72) was 178 and the “IFN-γ levels, Total” value [3, 6] was 17485. The “IFN-γ/IL-4 (BALB/c)” value ([4]; BALB/c, ratio calculated from Tables 1-6) was 37, the “IFN-γ levels, average” value ([4]; BALB/c, serum, hour 0) was 27 and the “IFN-γ levels, test 1” value ([4]; BALB/c, serum, hour 0) was 27. For the same compound, the “IFN-γ levels, test 2” value ([4]; BALB/c, serum, hour 0) was 27, the “IFN-γ levels, average” value ([4]; BALB/c, serum, hour 2) was 303 and the “IFN-γ levels, test 1” value ([4]; BALB/c, serum, hour 2) was 373. The “IFN-γ levels, test 2” value ([4]; BALB/c, serum, hour 2) was 233, the “IFN-γ levels, average” value ([4]; BALB/c, serum, hour 6) was 3990.5 and the “IFN-γ levels, test 1” value ([4]; BALB/c, serum, hour 6) was 2814. The “IFN-γ levels, test 2” value ([4]; BALB/c, serum, hour 6) was 5167, the “IFN-γ levels, average” value ([4]; BALB/c, serum, hour 12) was 5514 and the “IFN-γ levels, test 1” value ([4]; BALB/c, serum, hour 12) was 4881. For the same compound, the “IFN-γ levels, test 2” value ([4]; BALB/c, serum, hour 12) was 6147, the “IFN-γ levels, average” value ([4]; BALB/c, serum, hour 24) was 15250 and the “IFN-γ levels, test 1” value ([4]; BALB/c, serum, hour 24) was 16100. The “IFN-γ levels, test 2” value ([4]; BALB/c, serum, hour 24) was 14400, the “IFN-γ levels, average” value ([4]; BALB/c, serum, hour 48) was 484.5 and the “IFN-γ levels, test 1” value ([4]; BALB/c, serum, hour 48) was 441. For the same compound, the “IFN-γ levels, test 2” value ([4]; BALB/c, serum, hour 48) was 528, the “IFN-γ levels, average” value ([4]; BALB/c, serum, hour 72) was 62.5 and the “IFN-γ levels, test 1” value ([4]; BALB/c, serum, hour 72) was 62. The “IFN-γ levels, test 2” value ([4]; BALB/c, serum, hour 72) was 63, the “IFN-γ levels, Total” value ([4]; BALB/c, serum, total over hours 0-72) was 25633 and the “effect: higher/extended IFN-γ and IL-12 with much lower IL-4 compared to α-GalCer (KRN)” value ([4]; C57BL/6 and BALB/c mice, 1 μg i.v.) was “particularly pronounced”.
